Measured values taken from US11325938B2, “CD73 inhibitors” (ORIC Pharmaceuticals, Inc., priority 2018, dated 2022).

Biological target: CD73 (Homo sapiens (Human), UniProt P21589)
Test: Biochemical assay: inhibition of CD73 activity (AMP hydrolysis, Malachite Green readout)
Details: CD73 0.3208 nM, AMP 15 μM, 25 mM Tris-HCl pH 7.4, RT, absorbance 620 nm
Method in brief: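 Phosphate from AMP hydrolysis (15 μM AMP, 10 min, RT) was detected by Malachite Green absorbance to give IC50s. Enzyme at 320 pM was first exposed 15 min to compounds, dosed from 100 μM in ½-log steps, in Tris pH 7.4 buffer with MgCl2, Brij-35 and BSA.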

Sequence of CD73 (P21589 27-574): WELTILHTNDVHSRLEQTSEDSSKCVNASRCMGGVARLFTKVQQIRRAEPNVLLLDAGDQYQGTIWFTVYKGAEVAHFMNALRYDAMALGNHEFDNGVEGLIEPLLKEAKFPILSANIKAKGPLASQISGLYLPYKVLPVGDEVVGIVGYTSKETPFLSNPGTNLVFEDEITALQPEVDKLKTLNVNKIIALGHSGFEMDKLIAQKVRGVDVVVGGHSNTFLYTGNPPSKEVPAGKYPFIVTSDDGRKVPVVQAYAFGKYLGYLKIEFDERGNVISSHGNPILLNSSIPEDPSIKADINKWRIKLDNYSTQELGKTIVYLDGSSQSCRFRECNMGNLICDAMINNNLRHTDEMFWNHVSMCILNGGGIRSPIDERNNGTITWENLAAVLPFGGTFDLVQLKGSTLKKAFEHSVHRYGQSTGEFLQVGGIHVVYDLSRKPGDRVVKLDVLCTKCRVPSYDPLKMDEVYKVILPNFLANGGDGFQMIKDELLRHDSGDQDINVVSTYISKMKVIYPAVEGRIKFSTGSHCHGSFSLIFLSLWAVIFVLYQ

| SMILES | IC50 [nM] |
| --- | --- |
| CS(=O)(=O)C(OC[C@H]1O[C@@H](n2ncc3c(NC4CCCC4)nc(Cl)nc32)[C@H](O)[C@@H]1O)P(=O)(O)O (stereo partly drawn) [Example 38, ((((2R,3S,4R,5R)-5-(6-chloro-4-(cyclopentylamino)-1H-pyrazolo[3,4-d]pyrimidin-1-yl)-3,4-dihydroxytetrahydrofuran-2-yl)methoxy)(methylsulfonyl)methyl)phosphonic acid] | 100 to 1000 |
| O=P(O)(O)COC[C@H]1O[C@@H](n2nnc3c(NCC4CCC4)cc(Cl)nc32)[C@H](O)[C@@H]1O [Example 24, ((((2R,3S,4R,5R)-5-(5-chloro-7-((cyclobutylmethyl)amino)-3H-[1,2,3]triazolo[4,5-b]pyridin-3-yl)-3,4-dihydroxytetrahydrofuran-2-yl)methoxy)methyl)phosphonic acid] | ≤ 100 |
| CC#CC[C@@](CO)(OC[C@H]1O[C@@H](n2ncc3c(NC4CCCC4)nc(Cl)nc32)[C@H](O)[C@@H]1O)P(=O)(O)O [Example 97, ((R)-2-(((2R,3S,4R,5R)-5-(6-chloro-4-(cyclopentylamino)-1H-pyrazolo[3,4-d]pyrimidin-1-yl)-3,4-dihydroxytetrahydrofuran-2-yl)methoxy)-1-hydroxyhex-4-yn-2-yl)phosphonic acid] | ≤ 100 |
| CC(CN1CCOCC1)(OC[C@H]1O[C@@H](n2ncc3c(NC4CCCC4)nc(Cl)nc32)[C@H](O)[C@@H]1O)P(=O)(O)O (stereo partly drawn) [Example 71, (2-(((2R,3S,4R,5R)-5-(6-chloro-4-(cyclopentylamino)-1H-pyrazolo[3,4-d]pyrimidin-1-yl)-3,4-dihydroxytetrahydrofuran-2-yl)methoxy)-1-morpholinopropan-2-yl)phosphonic acid] | > 1000 |
| O=P(O)(O)[C@](CO)(Cc1nn[nH]n1)OC[C@H]1O[C@@H](n2ncc3c(NCC4CC4)nc(Cl)nc32)[C@H](O)[C@@H]1O (racemic) [Example 196, rac-((R)-2-(((2S,3R,4S,5S)-5-(6-chloro-4-((cyclopropylmethyl)amino)-1H-pyrazolo[3,4-d]pyrimidin-1-yl)-3,4-dihydroxytetrahydrofuran-2-yl)methoxy)-1-hydroxy-3-(2H-tetrazol-5-yl)propan-2-yl)phosphonic acid] | ≤ 100 |
| COC[C@@](C)(OC[C@H]1O[C@@H](n2ncc3c(NCC4CC4)nc(Cl)nc32)[C@H](O)[C@@H]1O)P(=O)(O)O [Example 129, ((S)-2-(((2R,3S,4R,5R)-5-(6-chloro-4-((cyclopropylmethyl)amino)-1H-pyrazolo[3,4-d]pyrimidin-1-yl)-3,4-dihydroxytetrahydrofuran-2-yl)methoxy)-1-methoxypropan-2-yl)phosphonic acid] | ≤ 100 |
| COC[C@](C)(OC[C@H]1O[C@@H](n2nnc3c(NC4CCCC4)cc(Cl)nc32)[C@H](O)[C@@H]1O)P(=O)(O)O [Example 148, ((R)-2-(((2R,3S,4R,5R)-5-(5-chloro-7-(cyclopentylamino)-3H-[1,2,3]triazolo[4,5-b]pyridin-3-yl)-3,4-dihydroxytetrahydrofuran-2-yl)methoxy)-1-methoxypropan-2-yl)phosphonic acid] | ≤ 100 |
| O=P(O)(O)C(CO)OC[C@H]1O[C@@H](n2ncc3c(NCC4CC4)nc(Cl)nc32)[C@H](O)[C@@H]1O (stereo partly drawn) [Example 30, (1-(((2R,3S,4R,5R)-5-(6-chloro-4-((cyclopropylmethyl)amino)-1H-pyrazolo[3,4-d]pyrimidin-1-yl)-3,4-dihydroxytetrahydrofuran-2-yl)methoxy)-2-hydroxyethyl)phosphonic acid] | ≤ 100 |
| O=P(O)(O)C(CO)(CO)OC[C@H]1O[C@H](n2ncc3c(NCc4ccc(Cl)cc4)nc(Cl)nc32)[C@H](O)[C@@H]1O (racemic) [Example 203, rac-(2-(((2R,3S,4R,5S)-5-(6-chloro-4-((4-chlorobenzyl)amino)-1H-pyrazolo[3,4-d]pyrimidin-1-yl)-3,4-dihydroxytetrahydrofuran-2-yl)methoxy)-1,3-dihydroxypropan-2-yl)phosphonic acid] | ≤ 100 |
| COCC(C)(OC[C@H]1O[C@@H](n2ncc3c(NC4CCC4)nc(Cl)nc32)[C@H](O)[C@@H]1O)P(=O)(O)O (stereo partly drawn) [Example 159, (2-(((2R,3S,4R,5R)-5-(6-chloro-4-(cyclobutylamino)-1H-pyrazolo[3,4-d]pyrimidin-1-yl)-3,4-dihydroxytetrahydrofuran-2-yl)methoxy)-1-methoxypropan-2-yl)phosphonic acid] | ≤ 100 |
| O=C(O)c1ccccc1COCC(CO)(OC[C@H]1O[C@@H](n2ncc3c(NC4CCCC4)nc(Cl)nc32)[C@H](O)[C@@H]1O)P(=O)(O)O (mixture of isomers) [Example 227, rac-2-((2-(((2R,3S,4R,5R)-5-(6-chloro-4-(cyclopentylamino)-1H-pyrazolo[3,4-d]pyrimidin-1-yl)-3,4-dihydroxytetrahydrofuran-2-yl)methoxy)-3-hydroxy-2-phosphonopropoxy)methyl)benzoic acid] | ≤ 100 |
| C[C@](CO)(OC[C@H]1O[C@@H](n2ncc3c(NC4CCCC4)nc(CO)nc32)[C@H](O)[C@@H]1O)P(=O)(O)O [Example 127, ((S)-2-(((2R,3S,4R,5R)-5-(4-(cyclopentylamino)-6-(hydroxymethyl)-1H-pyrazolo[3,4-d]pyrimidin-1-yl)-3,4-dihydroxytetrahydrofuran-2-yl)methoxy)-1-hydroxypropan-2-yl)phosphonic acid] | ≤ 100 |
| C[C@@](CO)(OC[C@H]1O[C@@H](n2ncc3c(NC4CCCC4)nc(Cl)nc32)[C@H](O)[C@@H]1O)P(=O)(O)O [Example 63, ((R)-2-(((2R,3S,4R,5R)-5-(6-chloro-4-(cyclopentylamino)-1H-pyrazolo[3,4-d]pyrimidin-1-yl)-3,4-dihydroxytetrahydrofuran-2-yl)methoxy)-1-hydroxypropan-2-yl)phosphonic acid] | ≤ 100 |
| C[C@H](O)COc1nc(NC2CCCC2)c2cnn([C@@H]3O[C@H](COC(CO)(CO)P(=O)(O)O)[C@@H](O)[C@H]3O)c2n1 (racemic) [Example 181, rac-(2-(((2R,3S,4R,5R)-5-(4-(cyclopentylamino)-6-((S)-2-hydroxypropoxy)-1H-pyrazolo[3,4-d]pyrimidin-1-yl)-3,4-dihydroxytetrahydrofuran-2-yl)methoxy)-1,3-dihydroxypropan-2-yl)phosphonic acid] | ≤ 100 |
| O=P(O)(O)C(CO)(Cc1cc(O)no1)OC[C@H]1O[C@@H](n2ncc3c(NC4CCCC4)nc(Cl)nc32)[C@H](O)[C@@H]1O (mixture of isomers) [Example 195, rac-(2-(((2R,3S,4R,5R)-5-(6-chloro-4-(cyclopentylamino)-1H-pyrazolo[3,4-d]pyrimidin-1-yl)-3,4-dihydroxytetrahydrofuran-2-yl)methoxy)-1-hydroxy-3-(3-hydroxyisoxazol-5-yl)propan-2-yl)phosphonic acid] | ≤ 100 |
| C[C@@H]1CCC[C@@H]1Nc1nc(Cl)nc2c1cnn2[C@@H]1O[C@H](COC(CO)(Cc2nn[nH]n2)P(=O)(O)O)[C@@H](O)[C@H]1O (mixture of isomers) [Example 209, rac-(2-(((2R,3S,4R,5R)-5-(6-chloro-4-(((1S,2R)-2-methylcyclopentyl)amino)-1H-pyrazolo[3,4-d]pyrimidin-1-yl)-3,4-dihydroxytetrahydrofuran-2-yl)methoxy)-1-hydroxy-3-(2H-tetrazol-5-yl)propan-2-yl)phosphonic acid] | ≤ 100 |
| O=P(O)(O)CS(=O)(=O)C[C@H]1O[C@@H](n2nnc3c(NC4CCCC4)cc(Cl)nc32)[C@H](O)[C@@H]1O [Example 16, (((((2S,3S,4R,5R)-5-(5-Chloro-7-(cyclopentylamino)-3H-[1,2,3]triazolo[4,5-b]pyridin-3-yl)-3,4-dihydroxytetrahydrofuran-2-yl)methyl)sulfonyl)methyl)phosphonic acid] | ≤ 100 |
| O=P(O)(O)[C@@](CO)(COCC1CC1)OC[C@H]1O[C@@H](n2ncc3c(NC4CCCC4)nc(Cl)nc32)[C@H](O)[C@@H]1O (racemic) [Example 171, rac-((R)-2-(((2S,3R,4S,5S)-5-(6-chloro-4-(cyclopentylamino)-1H-pyrazolo[3,4-d]pyrimidin-1-yl)-3,4-dihydroxytetrahydrofuran-2-yl)methoxy)-1-(cyclopropylmethoxy)-3-hydroxypropan-2-yl)phosphonic acid] | ≤ 100 |
| C[C@@](CO)(OC[C@H]1O[C@@H](n2ncc3c(N[C@@H]4CCc5cc(F)ccc54)nc(Cl)nc32)[C@H](O)[C@@H]1O)P(=O)(O)O [Example 122, ((R)-2-(((2R,3S,4R,5R)-5-(6-chloro-4-(((R)-5-fluoro-2,3-dihydro-1H-inden-1-yl)amino)-1H-pyrazolo[3,4-d]pyrimidin-1-yl)-3,4-dihydroxytetrahydrofuran-2-yl)methoxy)-1-hydroxypropan-2-yl)phosphonic acid] | ≤ 100 |
| O=P(O)(O)[C@](CO)(Cc1nn[nH]n1)OC[C@H]1O[C@@H](n2ncc3c(NC4CCCC4)nc(Cl)nc32)[C@H](O)[C@@H]1O [Example 103, ((S)-2-(((2R,3S,4R,5R)-5-(6-chloro-4-(cyclopentylamino)-1H-pyrazolo[3,4-d]pyrimidin-1-yl)-3,4-dihydroxytetrahydrofuran-2-yl)methoxy)-1-hydroxy-3-(2H-tetrazol-5-yl)propan-2-yl)phosphonic acid] | ≤ 100 |
| CN(C)CC(C)(OC[C@H]1O[C@@H](n2ncc3c(NC4CCCC4)nc(Cl)nc32)[C@H](O)[C@@H]1O)P(=O)(O)O (stereo partly drawn) [Example 81, (2-(((2R,3S,4R,5R)-5-(6-chloro-4-(cyclopentylamino)-1H-pyrazolo[3,4-d]pyrimidin-1-yl)-3,4-dihydroxytetrahydrofuran-2-yl)methoxy)-1-(dimethylamino)propan-2-yl)phosphonic acid] | > 1000 |
| C[C@@H](O)COc1nc(NC2CCCC2)c2cnn([C@@H]3O[C@H](COC(CO)(CO)P(=O)(O)O)[C@@H](O)[C@H]3O)c2n1 (racemic) [Example 191, rac-(2-(((2R,3S,4R,5R)-5-(4-(cyclopentylamino)-6-((R)-2-hydroxypropoxy)-1H-pyrazolo[3,4-d]pyrimidin-1-yl)-3,4-dihydroxytetrahydrofuran-2-yl)methoxy)-1,3-dihydroxypropan-2-yl)phosphonic acid] | ≤ 100 |
